The supplement of paper PMC10307832

How the values were obtained:
Assay in all cases: relative viability (nuclei count vs DMSO), 5 days (fraction); higher = more cells survive
[1] = compound: CN[C@@H]1C[C@H]2O[C@@](C)([C@@H]1OC)n1c3ccccc3c3c4c(c5c6ccccc6n2c5c31)C(=O)NC4 [Staurosporine] + C[C@@H](Oc1cc(-c2cnn(C3CCNCC3)c2)cnc1N)c1c(Cl)ccc(F)c1Cl [Crizotinib] (partner 1 µM)
Method in brief: (§1)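 Relative viability divides the nuclei count in treated wells by that in vehicle wells. Lung cancer cell lines were seeded in 1536-well plates, dosed by pin tool the next day, and fixed and stained after 5 days in one step with final 0.05% Triton X-100, 1% formaldehyde and 1 ug/ml Hoechst. Dosing was a single drug or a fixed anchor-drug dose plus five library-drug doses (not always all listed) in √10 steps, and values are medians of duplicate plates imaged at 4×.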

[2] = compound: O=c1[nH]cc(F)c(=O)[nH]1 [5-Fluorouracil] + O=C(CCCCCCC(=O)Nc1ccccc1)NO [Vorinostat] (partner 1 µM)
Method in brief: as §1

[3] = compound: CN[C@@H]1C[C@H]2O[C@@](C)([C@@H]1OC)n1c3ccccc3c3c4c(c5c6ccccc6n2c5c31)C(=O)NC4 [Staurosporine] + O=C(CCCCCCC(=O)Nc1ccccc1)NO [Vorinostat] (partner 1 µM)
Method in brief: as §1

[4] = compound: CN[C@@H]1C[C@H]2O[C@@](C)([C@@H]1OC)n1c3ccccc3c3c4c(c5c6ccccc6n2c5c31)C(=O)NC4 [Staurosporine] + Nc1ncn([C@H]2C[C@H](O)[C@@H](CO)O2)c(=O)n1 [Decitabine] (partner 2 µM)
Method in brief: as §1

Row | Cell Line | relative viability ([1]; first compound 0.005 µM) | relative viability ([1]; first compound 0.01581 µM) | relative viability ([1]; first compound 0.05 µM) | relative viability ([1]; first compound 0.1581 µM) | relative viability ([1]; first compound 0.5 µM) | relative viability ([2]; first compound 0.02 µM) | relative viability ([2]; first compound 0.2 µM) | relative viability ([2]; first compound 0.6325 µM) | relative viability ([2]; first compound 2 µM) | relative viability ([3]; first compound 0.005 µM) | relative viability ([3]; first compound 0.01581 µM) | relative viability ([3]; first compound 0.05 µM) | relative viability ([3]; first compound 0.1581 µM) | relative viability ([3]; first compound 0.5 µM) | relative viability ([4]; first compound 0.005 µM) | relative viability ([4]; first compound 0.01581 µM) | relative viability ([4]; first compound 0.05 µM) | relative viability ([4]; first compound 0.1581 µM) | relative viability ([4]; first compound 0.5 µM)
1 | NCI-H1666 | 0.536 | 0.528 | 0.418 | 0.236 | 0.2 | 0.981 | 0.649 | 0.577 | 0.563 | 0.938 | 0.824 | 0.801 | 0.593 | 0.446 | 0.685 | 0.522 | 0.559 | 0.476 | 0.454
2 | LOU-NH91 | 0.721 | 0.594 | 0.493 | 0.413 | 0.325 | 0.937 | 0.988 | 0.607 | 0.35 | 0.859 | 0.405 | 0.61 | 0.267 | 0.294 | 0.788 | 0.607 | 0.624 | 0.4 | 0.314
3 | LXF-289 | 0.751 | – | 0.258 | 0.0796 | 0.0672 | 0.708 | 0.67 | 0.383 | 0.309 | 0.73 | 0.249 | 0.29 | 0.0781 | 0.0815 | 0.445 | 0.266 | 0.31 | 0.18 | 0.206
4 | NCI-H1299 | 0.516 | 0.385 | 0.55 | 0.163 | 0.142 | – | – | – | – | – | – | – | – | – | – | – | – | – | –
5 | HARA | 0.756 | 0.558 | 0.158 | 0.147 | – | 0.517 | 0.39 | 0.281 | 0.16 | 0.511 | 0.114 | 0.307 | 0.302 | 0.195 | 0.479 | 0.334 | 0.249 | 0.15 | 0.179
6 | LU99A | 0.391 | 0.308 | 0.253 | 0.157 | 0.118 | 0.497 | 0.479 | 0.44 | 0.302 | 0.452 | 0.16 | 0.173 | 0.128 | 0.107 | 0.934 | 0.672 | 0.513 | 0.341 | 0.198
7 | 201T | 1.03 | 0.994 | 0.962 | 0.847 | 0.724 | 1.04 | 0.54 | 0.287 | 0.228 | 0.935 | – | 0.699 | 0.354 | 0.245 | 0.884 | – | 0.787 | 0.649 | 0.672
8 | NCI-H1703 | 0.483 | 0.253 | 0.093 | 0.133 | 0.0695 | – | – | – | – | – | – | – | – | – | – | – | – | – | –
9 | A549 | 0.369 | 0.19 | 0.0867 | 0.0411 | 0.0307 | – | – | – | – | – | – | – | – | – | 0.348 | 0.239 | 0.108 | 0.0369 | 0.0407
10 | Calu-6 | 0.809 | 0.337 | 0.163 | 0.0867 | 0.0627 | – | – | – | – | – | – | – | – | – | – | – | – | – | –
11 | SW 900 | – | – | – | – | – | 0.628 | 0.575 | 0.562 | 0.4 | 0.294 | 0.15 | 0.171 | 0.146 | 0.0929 | 0.531 | 0.39 | 0.394 | 0.262 | 0.25
12 | NCI-H2228 | 0.292 | 0.234 | 0.177 | 0.169 | 0.132 | 0.665 | 0.373 | 0.407 | 0.321 | 0.449 | 0.188 | 0.126 | 0.0779 | 0.0804 | – | – | – | – | –
13 | NCI-H1648 | – | – | – | – | – | 0.482 | 0.389 | 0.495 | 0.263 | 0.517 | 0.167 | 0.269 | 0.246 | 0.271 | 0.43 | 0.223 | 0.28 | 0.313 | 0.287
14 | NCI-H1792 | – | 0.822 | 0.418 | 0.154 | 0.16 | – | – | – | – | – | – | – | – | – | 0.432 | 0.298 | 0.224 | 0.133 | 0.065
15 | NCI-H1563 | 0.696 | 0.559 | 0.635 | 0.587 | 0.503 | – | – | – | – | – | – | – | – | – | – | – | – | – | –
16 | NCI-H2342 | – | – | – | – | – | 0.903 | 0.86 | 0.741 | 0.616 | 0.987 | 0.74 | 0.444 | 0.34 | 0.3 | 0.772 | 0.687 | 0.513 | 0.553 | 0.372
17 | NCI-H1793 | – | – | – | – | – | 0.801 | 0.814 | 0.723 | 0.502 | 0.635 | – | 0.164 | 0.11 | 0.0792 | 0.341 | – | 0.311 | 0.125 | 0.191
18 | NCI-H522 | – | – | – | – | – | 0.884 | 1.02 | 0.982 | 0.81 | 0.856 | 0.452 | 0.75 | 0.397 | 0.484 | 0.502 | 0.678 | 0.643 | 0.617 | 0.564
19 | CAL-12T | 0.16 | 0.0981 | 0.0843 | 0.113 | 0.0906 | 0.759 | 0.591 | 0.563 | 0.447 | 0.415 | 0.231 | 0.165 | 0.129 | 0.112 | – | – | – | – | –
20 | EBC-1 | 0.183 | 0.205 | 0.163 | 0.105 | 0.115 | – | – | – | – | – | – | – | – | – | – | – | – | – | –
21 | IA-LM | 0.253 | 0.073 | 0.319 | 0.148 | 0.0488 | 0.906 | 0.659 | 0.274 | 0.25 | 0.732 | 0.312 | 0.0781 | 0.0987 | 0.105 | – | – | – | – | –
22 | NCI-H1395 | – | – | – | – | – | 0.728 | 0.755 | 0.645 | 0.756 | 0.447 | 0.264 | 0.288 | 0.299 | 0.228 | 0.76 | 0.596 | 0.454 | 0.314 | 0.27
